In patent US20250321225A1, “SKIN DAMAGE ORGANOID MODEL AND DRUG SCREENING METHOD USING THE SAME” (KANGSTEM BIOTECH CO., LTD., priority 2023, published 2025):

Tests used:
Format in all cases: cell-based, human
normal hair follicles = assay: Hair follicle growth in normal hair follicle organoid; details: for hair follicle length compared to the control: 14 days after drug treatment
Text: The hair follicle growth was compared after treatment with each of minoxidil, which is known to promote hair follicle growth, and dihydrotestosterone (DHT), which is an endogenous hormone causing hair loss.

[1] = system: inflammatory cytokines, such as IL-6, TNF-α, and IL-1β; assay: Inflammatory cytokine expression and secretion in sUV-exposed SkOs (qPCR, immunofluorescence, ELISA)
Description: It is known that sUV irradiation causes the secretion of pro-inflammatory cytokines in skin tissue, leading to skin inflammation and subsequent skin damage. Accordingly, it was investigated whether sUV exposure can also affect hair follicles and induce an inflammatory response in the dermis of SkOs.
Furthermore, the secretion of inflammatory cytokines, such as IL-6, TNF-α, and IL-1β, increased by sUV exposure, was evaluated by ELISA.

NF-κB = assay: IκB/NF-κB signaling in sUV-exposed SkOs (Western blotting, immunofluorescence)
Text: NF-κB is known to play an important role in regulating the expression of immune mediators. […] When activated by external stimuli such as inflammatory cytokines or cellular stress, the IκBα protein is phosphorylated and subsequently degraded, releasing NF-κB from the NF-κB-IκB complex. The released NF-κB translocates to the cell nucleus to promote the transcription of genes involved in inflammation and induce cytokine production. Considering the above, the present inventors investigated whether IκB-dependent NF-κB activation mediates the inflammatory response in hair follicles.
This caused the disruption of the NF-κB-IκB complex which activated NF-κB and caused it to translocate to the nucleus, as evidenced by increased NF-κB expression in the nuclear compartment of SkOs exposed to sUV. After treating the sUV-exposed SkOs with UCB-Exos, it was observed that both IκBα phosphorylation and degradation decrease, and nuclear translocation of NF-κB was inhibited (FIGS. 7A and 7B). […] Generally, hair follicles are composed of keratinocytes and fibroblasts, both of which play an important role in skin inflammatory responses. […] Meanwhile, the epidermis of SkOs, which is the uppermost layer exposed to sUV, was also inflamed, which may extend to the dermis and indirectly damage hair follicles (FIGS. 7G and 7H).
To evaluate the direct effect of UCB-Exos alleviating sUV-induced damage by NF-κB activation, the present inventors treated a sUV-damaged organoid with the NF-κB inhibitor, BAY11-7082. BAY11-7082 is known to inhibit the translocation of NF-κB to the nucleus by inhibiting the degradation of IκBα unit, thereby preventing further activation of NF-κB signaling.
As expected, it was confirmed that IL-6 expression was positively correlated with the expression level of NF-κB (FIGS. 8A and 8B).

hair follicles in SkOs = assay: Hair follicle damage in sUV-exposed SkOs
Description: The effects of sUV exposure on skin appendages in the dermis of SkOs were investigated. As a result, it was confirmed that the expression of a KRT5 marker constituting the outer layer of a hair follicle in SkOs was reduced. […] Accordingly, to thoroughly compare the extent of hair follicle damage, hair follicles were isolated from each skin organoid and subjected to qRT-PCR analysis. […] To determine the optimal concentration of UCB-Exos for alleviating SkO damage by sUV, SkOs were treated with different concentrations of UCB-Exos two hours after sUV exposure, and this procedure was repeated three times (FIG. 5A). […] The effect of UCB-Exos on hair follicles in SkOs was investigated. In the hair follicles, apoptosis (cleaved caspase-3^+) was reduced, and the number of regenerating cells (Ki67^+) increased (FIGS. 6A and 6B). In addition, keratinocytes and fibroblasts in the hair follicles aged by sUV are known to secrete MMPs and inflammatory cytokines known as a senescence-associated secretory phenotype (SASP).

Compound | hair follicle length compared to the control (normal hair follicles) | difference in IL-6 and TNF-α secretion between BAY11-7082-treated SkOs and UCB-Exos-treated SkOs ([1]; ELISA) | IL-6 in the cytoplasm in hair follicles ([1]; immunofluorescence staining) | expression of genes (IGF-1, WNT3A) associated with hair growth promotion (normal hair follicles; compared to the control) | hair loss-associated genes (DKK1, TGFb-2) (normal hair follicles; compared to the control) | IκBα degradation (NF-κB; Western blotting, Example 6) | NF-κB nuclear translocation / activation / levels (NF-κB; Western blotting, Example 6) | phosphorylated IκBα (NF-κB; Western blotting, Example 6) | NF-κB translocation to the nuclei in hair follicles (NF-κB; immunofluorescence staining) | apoptosis / death rate in hair follicles (hair follicles in SkOs; Example 6) | mRNA expression of ECM components associated with inflammatory cytokines and SASP (hair follicles in SkOs; hair follicles)
C[C@]12CCC(=O)C[C@@H]1CC[C@@H]1[C@@H]2CC[C@]2(C)[C@@H](O)CC[C@@H]12 [DHT, dihydrotestosterone] | approximately 0.7 fold | – | – | – | – | – | – | – | – | – | –
Cc1ccc(S(=O)(=O)/C=C/C#N)cc1 [BAY11-7082] | approximately 1.4 fold | no significant difference | significant decrease | upregulated | downregulated | inhibition | reduced | decreased | significant decrease | reduced | dramatically reduced
Nc1cc(N2CCCCC2)nc(N)[n+]1[O-] [minoxidil] | approximately 1.3 fold | – | – | – | – | – | – | – | – | – | –
